Laboratory results reported in US20260201008A1, “SECRETIN-DERIVED GLP1R SELECTIVE AGONISTS” (GUBRA A/S, priority 2023, published 2026).
Read-outs that look alike come from different tables or passages of the source. Numbered stars: 1 amine (or outer) side, 2 acyl side, 3 side chain; on linkers, the order of the positions; unused ones are H or OH. Square brackets hold non-standard residues; d marks the D form. Side chains are listed from the residue outwards. Ends that are not written are not given here. Peptide text beside a SMILES is read from it. * marks the point of attachment. C20 diacid = O=C(O)CCCCCCCCCCCCCCCCCCC(=O)*; γGlu = O=C(O)[C@H](CCC(=O)[*:2])N[*:1]; AEEA = NCCOCCOCC(=O)O; Aib = CC(C)(N)C(=O)O

B1: SEQ ID NO: 194 (peptide)
peptide: H[Aib]EGTFTSDYSRLLEGAALQRFIQWLV-NH2
modifications: N-terminus assumed
SMILES: CC[C@H](C)[C@H](NC(=O)[C@H](Cc1ccccc1)NC(=O)[C@H](CCCNC(=N)N)NC(=O)[C@H](CCC(N)=O)NC(=O)[C@H](CC(C)C)NC(=O)[C@H](C)NC(=O)[C@H](C)NC(=O)CNC(=O)[C@H](CCC(=O)O)NC(=O)[C@H](CC(C)C)NC(=O)[C@H](CC(C)C)NC(=O)[C@H](CCCNC(=N)N)NC(=O)[C@H](CO)NC(=O)[C@H](Cc1ccc(O)cc1)NC(=O)[C@H](CC(=O)O)NC(=O)[C@H](CO)NC(=O)[C@@H](NC(=O)[C@H](Cc1ccccc1)NC(=O)[C@@H](NC(=O)CNC(=O)[C@H](CCC(=O)O)NC(=O)C(C)(C)NC(=O)[C@@H](N)Cc1c[nH]cn1)[C@@H](C)O)[C@@H](C)O)C(=O)N[C@@H](CCC(N)=O)C(=O)N[C@@H](Cc1c[nH]c2ccccc12)C(=O)N[C@@H](CC(C)C)C(=O)N[C@H](C(N)=O)C(C)C

Experiments:
SCTR = SCTR (Homo sapiens, UniProt P47872); test: hSCTR potency, cAMP accumulation in CHO-K1 cells stably overexpressing hSCTR; assay type: cell-based; set-up: alternatively Euroscreen ES-712-AF; FAST-0161L; host or cells: CHO-K1; conditions: cAMP accumulation, CHO-K1 cells overexpressing hSCTR
Source text: (§1) Crude library peptides are screened in 10-fold serial dilutions of 5 concentrations, n=1 time. Tip change is done for the first two serial dilutions. Compound starting concentration (top) will be adjusted throughout the study if needed.
(§2) Purified peptides are screened in 3-fold serial dilutions of 11 concentrations, n=2 times. Tip change is done for all serial dilutions. Compound starting concentration (top) will be adjusted throughout the study. If the top concentration is adjusted or a 5-fold difference in calculated EC50 values is observed, n is increased by 1. EC50 values were calculated by nonlinear regression using sigmoid concentration-response with variable slope.
(§3) Frozen division arrested CHO-K1 cells stably overexpressing the hSCTR were obtained from PerkinElmer (ES-712-AF). Alternatively, a CHO-K1 cell line stably overexpressing the hSCTR was obtained from Euroscreen (FAST-0161L), expanded, aliquoted and frozen. An aliquot was thawed and plated in DPBS with 0.05% casein and 0.5 mM IBMX as 2000 cells/well in a 384-well format. The cells were then immediately stimulated for 30 min at room temperature with graded doses of test compound using human secretin (synthesized at Gubra) as a positive control. cAMP accumulation was measured using a Cisbio assay for Gs coupled receptors (cat. no. 62AM4PEC), where the assay reagents were added as per the manufacturer's instructions and time-resolved fluorescence energy transfer recorded after one hour on a CLARIOstar (BMG Labtech) plate reader.

GLP1R = GLP1R (Homo sapiens, UniProt P43220); test: hGLP1R potency, cAMP accumulation in CHO-K1 cells stably overexpressing hGLP1R; assay type: cell-based; set-up: host or cells: CHO-K1; conditions: for Selectivity: SCTR EC50/GLP1R EC50 ratio; for EC50: cAMP accumulation, CHO-K1 cells overexpressing hGLP1R; for SCTR EC50/GLP1R EC50 ratio: selectivity for hGLP1R over hSCTR, cAMP accumulation in CHO-K1 cells
Source text: as §1, §2
as §3, with “A” for “Frozen division arrested CHO-K1 cells stably overexpressing the hSCTR were obtained from PerkinElmer (ES-712-AF). Alternatively, a”, “hGLP1R” for “hSCTR”, “(FAST-0145L),” for “(FAST-0161L),”, “GLP-1(7-36)” for “secretin”

[1] = Turbidity of crude library peptides (absorbance at 600 nm); assay type: physicochemical; conditions: Physical stability of peptides
Experimental: (§4) Peptides were dissolved in buffers (50 mM sodium acetate at pH 4.0, or 50 mM sodium phosphate at pH 7.0) to 267 μM and incubated for 1-2 hours at room temperature. The samples were then divided into two replicates of 80 μl in a black 384 well plate (μ-clear, Greiner Bio-One) and mixed with Thioflavin T (ThT) to a final concentration of 4 μM. The plate was centrifuged for 2 min at 2000 rpm to remove air bubbles, sealed, and placed in a plate reader (CLARIOstar, BMG). Firstly, turbidity of the samples was measured as the absorbance at 600 nm. Secondly, the plate reader temperature was set to 40° C. and the fluorescence was measured every 10 min for 72 hours by exciting the ThT at 450 nm and measuring the emission at 480 nm. Samples were stressed by shaking the plate at 700 rpm (linear) for five minutes before every measurement, and fibril formation was determined as the average emission for each sample.

[2] = Fibril formation of crude library peptides (Thioflavin T); assay type: physicochemical; set-up: key: average ThT fluorescence emission at 480 nm (ex 450 nm), raw units; conditions: Physical stability of peptides
Experimental: as §4

[3] = biological target: human secretin receptor (hSCTR) (human, UniProt P47872 23-440); test: cell-based or functional assay
[4] = read-out: pEC50 hSCTR (converted)
[5] = read-out: pEC50 hGLPR1 (converted)

Sequence of SCTR (P47872 23-440): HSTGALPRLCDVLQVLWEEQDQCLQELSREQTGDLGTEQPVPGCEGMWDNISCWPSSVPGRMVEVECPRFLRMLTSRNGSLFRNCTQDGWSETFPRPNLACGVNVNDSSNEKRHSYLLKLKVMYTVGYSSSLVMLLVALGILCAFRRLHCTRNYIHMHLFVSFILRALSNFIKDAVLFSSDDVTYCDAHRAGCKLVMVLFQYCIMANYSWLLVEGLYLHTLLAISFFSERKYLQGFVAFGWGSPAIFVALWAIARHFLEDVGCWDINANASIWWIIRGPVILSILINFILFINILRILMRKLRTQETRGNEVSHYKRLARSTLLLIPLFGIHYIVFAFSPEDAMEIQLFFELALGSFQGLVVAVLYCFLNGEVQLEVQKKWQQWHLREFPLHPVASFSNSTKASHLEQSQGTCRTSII
Sequence of GLP1R (P43220 24-463): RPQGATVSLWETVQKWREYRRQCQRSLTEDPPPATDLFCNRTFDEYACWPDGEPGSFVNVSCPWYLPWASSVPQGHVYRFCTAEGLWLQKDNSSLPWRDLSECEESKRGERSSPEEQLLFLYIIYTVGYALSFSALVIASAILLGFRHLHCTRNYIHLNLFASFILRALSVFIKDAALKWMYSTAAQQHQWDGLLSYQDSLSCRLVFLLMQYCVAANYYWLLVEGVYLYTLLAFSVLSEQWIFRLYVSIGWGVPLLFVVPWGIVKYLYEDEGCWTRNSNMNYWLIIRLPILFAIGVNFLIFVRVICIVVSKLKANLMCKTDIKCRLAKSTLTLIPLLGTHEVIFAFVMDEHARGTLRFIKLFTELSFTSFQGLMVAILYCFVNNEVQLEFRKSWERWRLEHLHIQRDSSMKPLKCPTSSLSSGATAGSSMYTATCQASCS
Sequence of human secretin receptor (hSCTR) (P47872 23-440): as the sequence (P47872 23-440) above

Molecule | EC50 (SCTR; [4]) [nM] | Selectivity (GLP1R) | EC50 (GLP1R; [5]) [nM] | Turbidity (pH 7) [1] | Fibril formation [2] | EC50 (SCTR; read-out: hSCTR pEC50 (converted)) [nM] | EC50 (GLP1R; read-out: hGLP1R pEC50 (converted)) [nM] | SCTR EC50/GLP1R EC50 ratio (GLP1R) | pEC50 hSCTR [3]
CC(C)C[C@H](NC(=O)[C@H](Cc1ccccc1)NC(=O)[C@H](CCCNC(=N)N)NC(=O)[C@H](CCC(N)=O)NC(=O)[C@H](CCC(N)=O)NC(=O)[C@H](C)NC(=O)[C@H](C)NC(=O)[C@H](Cc1ccccc1)NC(=O)[C@H](CCC(=O)O)NC(=O)[C@H](CCCCNC(=O)COCCOCCNC(=O)COCCOCCNC(=O)CC[C@H](NC(=O)CCCCCCCCCCCCCCCCCCC(=O)O)C(=O)O)NC(=O)[C@H](CC(C)C)NC(=O)[C@H](CCCNC(=N)N)NC(=O)[C@H](CO)NC(=O)[C@@H](NC(=O)[C@H](CC(=O)O)NC(=O)[C@H](CO)NC(=O)[C@@H](NC(=O)[C@H](Cc1ccccc1)NC(=O)[C@@H](NC(=O)CNC(=O)[C@H](CCC(=O)O)NC(=O)C(C)(C)NC(=O)[C@@H](N)Cc1c[nH]cn1)[C@@H](C)O)[C@@H](C)O)C(C)C)C(=O)N[C@@H](CCC(=O)O)C(=O)N[C@@H](Cc1c[nH]cn1)C(=O)N[C@@H](CC(C)C)C(=O)N[C@H](C(N)=O)C(C)C [compound 24] (H-H[Aib]EGTFTSDVSRLK([AEEA-AEEA-γGlu-C20 diacid])EFAAQQRFLEHLV-NH2) | 158 | 2998 | 0.0501 | 0.08 | 221619 | – | – | – | –
CC(C)C[C@H](NC(=O)[C@H](Cc1ccccc1)NC(=O)[C@H](CCCNC(=N)N)NC(=O)[C@H](CCC(N)=O)NC(=O)[C@H](CO)NC(=O)[C@H](C)NC(=O)[C@H](C)NC(=O)[C@H](CCC(=O)O)NC(=O)[C@H](CCC(=O)O)NC(=O)[C@H](CCCCNC(=O)COCCOCCNC(=O)COCCOCCNC(=O)CC[C@H](NC(=O)CCCCCCCCCCCCCCCCCCC(=O)O)C(=O)O)NC(=O)[C@H](CC(C)C)NC(=O)[C@@H](NC(=O)[C@H](CO)NC(=O)[C@@H](NC(=O)[C@H](CC(=O)O)NC(=O)[C@H](CO)NC(=O)[C@@H](NC(=O)[C@H](Cc1ccccc1)NC(=O)[C@@H](NC(=O)CNC(=O)[C@H](CCC(=O)O)NC(=O)C(C)(C)NC(=O)[C@@H](N)Cc1c[nH]cn1)[C@@H](C)O)[C@@H](C)O)C(C)C)[C@@H](C)O)C(=O)N[C@@H](CCC(=O)O)C(=O)N[C@@H](Cc1c[nH]cn1)C(=O)N[C@@H](CC(C)C)C(=O)N[C@H](C(N)=O)C(C)C [compound 6] (H-H[Aib]EGTFTSDVSTLK([AEEA-AEEA-γGlu-C20 diacid])EEAASQRFLEHLV-NH2) | 316 | 11820 | 0.0316 | 0.09 | 6489 | – | – | – | –
CC(C)C[C@H](NC(=O)[C@H](Cc1ccccc1)NC(=O)[C@H](CCCNC(=N)N)NC(=O)[C@H](CCC(N)=O)NC(=O)[C@H](CC(C)C)NC(=O)C(C)(C)NC(=O)[C@H](C)NC(=O)[C@H](CCC(=O)O)NC(=O)[C@H](CCC(=O)O)NC(=O)[C@H](CCCCNC(=O)COCCOCCNC(=O)COCCOCCNC(=O)CC[C@H](NC(=O)CCCCCCCCCCCCCCCCCCC(=O)O)C(=O)O)NC(=O)[C@H](CC(C)C)NC(=O)[C@H](Cc1ccc(O)cc1)NC(=O)[C@H](CO)NC(=O)C(C)(C)NC(=O)[C@H](CC(=O)O)NC(=O)[C@H](CO)NC(=O)[C@@H](NC(=O)[C@H](Cc1ccccc1)NC(=O)[C@@H](NC(=O)CNC(=O)[C@H](CCC(=O)O)NC(=O)C(C)(C)NC(=O)[C@@H](N)Cc1c[nH]cn1)[C@@H](C)O)[C@@H](C)O)C(=O)N[C@@H](CCC(=O)O)C(=O)N[C@@H](Cc1c[nH]cn1)C(=O)N[C@@H](CC(C)C)C(=O)N[C@H](C(N)=O)C(C)C [compound 103] (H-H[Aib]EGTFTSD[Aib]SYLK([AEEA-AEEA-γGlu-C20 diacid])EEA[Aib]LQRFLEHLV-NH2) | – | – | – | 0.08 | 3646 | 10000 | 0.00794 | 1181272 | –
CC(C)C[C@H](NC(=O)[C@H](Cc1ccccc1)NC(=O)[C@H](CCCNC(=N)N)NC(=O)[C@H](CCC(N)=O)NC(=O)[C@H](CC(C)C)NC(=O)C(C)(C)NC(=O)[C@H](C)NC(=O)[C@H](CCC(=O)O)NC(=O)[C@H](CCC(=O)O)NC(=O)[C@H](CCCCNC(=O)COCCOCCNC(=O)COCCOCCNC(=O)CC[C@H](NC(=O)CCCCCCCCCCCCCCCCCCC(=O)O)C(=O)O)NC(=O)[C@H](CC(C)C)NC(=O)[C@H](Cc1ccc(O)cc1)NC(=O)[C@H](CO)NC(=O)[C@@H](NC(=O)[C@H](CC(=O)O)NC(=O)[C@H](CO)NC(=O)[C@@H](NC(=O)[C@H](Cc1ccccc1)NC(=O)[C@@H](NC(=O)CNC(=O)[C@H](CCC(N)=O)NC(=O)C(C)(C)NC(=O)[C@@H](N)Cc1c[nH]cn1)[C@@H](C)O)[C@@H](C)O)C(C)C)C(=O)N[C@@H](CCC(=O)O)C(=O)N[C@@H](Cc1c[nH]cn1)C(=O)N[C@@H](CC(C)C)C(=O)N[C@H](C(N)=O)C(C)C [compound 156] (H-H[Aib]QGTFTSDVSYLK([AEEA-AEEA-γGlu-C20 diacid])EEA[Aib]LQRFLEHLV-NH2) | – | – | – | 0.08 | 3949 | – | – | 2941711 | –
216 (GUB06-046) (H[Aib]EGTFTSDLSRLLEGAALQRFIQWLV-NH2; N-terminus assumed; SMILES CC[C@H](C)[C@H](NC(=O)[C@H](Cc1ccccc1)NC(=O)[C@H](CCCNC(=N)N)NC(=O)[C@H](CCC(N)=O)NC(=O)[C@H](CC(C)C)NC(=O)[C@H](C)NC(=O)[C@H](C)NC(=O)CNC(=O)[C@H](CCC(=O)O)NC(=O)[C@H](CC(C)C)NC(=O)[C@H](CC(C)C)NC(=O)[C@H](CCCNC(=N)N)NC(=O)[C@H](CO)NC(=O)[C@H](CC(C)C)NC(=O)[C@H](CC(=O)O)NC(=O)[C@H](CO)NC(=O)[C@@H](NC(=O)[C@H](Cc1ccccc1)NC(=O)[C@@H](NC(=O)CNC(=O)[C@H](CCC(=O)O)NC(=O)C(C)(C)NC(=O)[C@@H](N)Cc1c[nH]cn1)[C@@H](C)O)[C@@H](C)O)C(=O)N[C@@H](CCC(N)=O)C(=O)N[C@@H](Cc1c[nH]c2ccccc12)C(=O)N[C@@H](CC(C)C)C(=O)N[C@H](C(N)=O)C(C)C) | – | – | – | 0.48 | 11040 | – | – | – | –
B1 | – | – | – | – | – | – | – | – | 8.8 -log M
